Test results reported in US9790233B2, “Compositions and methods of modulating 15-PGDH activity” (CASE WESTERN RESERVE UNIVERSITY, priority 2012, dated 2017).
Like-named read-outs stand apart in the source and are kept apart here.

How the values were obtained:
[1] = test system: 15-PGDH luciferase fusion construct in Vaco503 reporter cell line; assay: 15-PGDH-luciferase fusion gene reporter induction, V503 cells; type: cell-based; conditions: read-out: V503-3H9-7 reporter activity, % ([…]), V503 reporter cells, […] compound, % induction of luciferase activity over basal level
[2] = Metabolic stability with murine liver S9; type: in vitro ADME
Procedure: SW054384 (2 mM in DMSO) was incubated with Murine S9 (Lot KWB) fraction and Phase I (NADPH Regenerating System) cofactors for 0-240 minutes. Reactions were quenched with a 1 mL (1:1) of MeOH/(+)IS/0.2% Formic Acid, vortexed for 15 seconds, incubated at RT for 10 minutes and spun for 5 minutes at 2400 rpms. […] Supernatant (800 μL) was transferred to an HPLC vial (w/out insert) and analyzed by HPLC/MS. A: dH2O+0.1% FA B: MeOH+0.1% FA
SW125991 (2 mM in DMSO) was incubated with Murine S9 (Lot KWB) fraction and Phase I (NADPH Regenerating System) cofactors for 0-240 minutes. Reactions were quenched with 1 mL (1:1) of methanol containing 0.2% formic acid and 100 ng/ml IS (IS final conc.=50 ng/ml). Samples were vortexed for 15 seconds, incubated at RT for 10 minutes and spun for 5 minutes at 2400 rpm. […] Supernatant (800 μL) was transferred to an HPLC vial (w/out insert). Analyzed by Qtrap 3200 mass spectrometer.

[3] = test system: A549 cells; assay: PGE2 levels in the medium of IL1-beta stimulated A549 cells; type: cell-based; conditions: for Decrease PGE-2 (IL-1beta-A549, %): media of IL-1beta stimulated A549 cells;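 as to all read-outs here: PGE2 in the collected culture medium quantified by enzyme immunoassay (ELISA), with data drawn from three independent experiments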
[4] = test system: 15-PGDH luciferase fusion construct in LS174T reporter cell line; assay: 15-PGDH-luciferase fusion gene reporter induction, LS174T cells; type: cell-based; conditions: Homo sapiens
[5] = test system: A549 cells; assay: Cellular toxicity on A549 cells (CellTiter-Glo); type: cell-based; parameters: Decrease Cell viability in A549 cell (%): concentration or dose not given beside the values; conditions: for Decrease Cell viability in A549 cell (%): A549 cells
[6] = test system: 15-PGDH luciferase fusion construct in V9m reporter cell line; assay: 15-PGDH-luciferase fusion gene reporter induction, V9m cells; type: cell-based; conditions: % induction of luciferase activity over basal level
[7] = test system: 15-PGDH-luciferase fusion reporter in V9m, LS174T and V503 cells; assay: 15-PGDH-luciferase fusion gene reporter induction, stated for the three cell line backgrounds together; type: cell-based
[8] = test system: 15-PGDH mRNA; assay: 15-PGDH mRNA levels by real-time PCR; type: cell-based; conditions: treated colon cancer cell lines
[9] = molecular target: 15-PGDH protein (Homo sapiens (Human), UniProt P15428); assay: Inhibition of enzymatic activity of recombinant 15-PGDH in vitro (tritium transfer from PGE2 or NADH fluorescence); type: biochemical; conditions: recombinant 15-PGDH in vitro; read-out: Enzyme inhibition (IC50)
Chain of 15-PGDH protein (P15428 whole entry): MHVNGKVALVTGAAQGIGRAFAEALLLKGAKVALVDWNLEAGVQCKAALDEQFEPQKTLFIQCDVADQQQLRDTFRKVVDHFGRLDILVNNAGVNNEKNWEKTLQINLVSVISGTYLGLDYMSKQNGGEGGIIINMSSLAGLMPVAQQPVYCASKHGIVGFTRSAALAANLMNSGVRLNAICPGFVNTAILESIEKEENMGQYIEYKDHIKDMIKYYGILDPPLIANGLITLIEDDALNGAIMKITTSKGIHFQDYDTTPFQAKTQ

[10] = read-out: V503-3H9-7 reporter activity, % (2.5 μM)
[11] = read-out: V503-3H9-7 reporter activity, % (7.5 μM)
[12] = read-out: Ls174T-SC1 reporter activity, % ([…]), LS174T reporter cells, […] compound, % induction of luciferase activity over basal level, read-out: Ls174T-SC1 reporter activity, % (2.5 μM)
[13] = read-out: Ls174T-SC1 reporter activity, % ([…]), LS174T reporter cells, […] compound, % induction of luciferase activity over basal level, read-out: Ls174T-SC1 reporter activity, % (7.5 μM)
[14] = read-out: V9M-SC3 Reporter activity ([…]) (%), V9m reporter cells, […] compound, read-out: V9M-SC3 Reporter activity (2.5 μM) (%)
[15] = read-out: V9M-SC3 Reporter activity ([…]), %, V9m reporter cells, […] compound, read-out: V9M-SC3 Reporter activity (7.5 μM), %

| Compound | activation at […] [1, 10] | activation at […] [1, 11] | metabolic stability [2] | half-life ([2]; mouse, liver S9 fraction, Murine S9 fraction, Phase I cofactors, 0-240 minutes) | lowering of PGE2 levels in media [3] | Decrease PGE-2 (IL-1beta-A549, %) [3] | activation at […] [4, 12] | activation at […] [4, 13] | toxicity by CellTiter-Glo ([5]; 24 hours) | Decrease Cell viability in A549 cell (%) [5] | activation at […] [6, 14] | activation at […] [6, 15] | PGE2 levels in medium ([3]; IL1-beta 23 hours, compound added for the last 5 hours) | luciferase activity of cells expressing 15-PGDH luciferase fusion construct ([7]; V9m, LS174T, V503, FIG. 1) | 15-PGDH mRNA levels (real-time PCR) [8] | IC50 [9] | induction of 15-PGDH-luciferase reporter in cell lines (SW054384 analogues) ([7]; […] and […]) |
| --- | --- | --- | --- | --- | --- | --- | --- | --- | --- | --- | --- | --- | --- | --- | --- | --- | --- |
| COc1ccc(OC)c(N(CC(=O)N2CCOCC2)S(=O)(=O)c2ccccc2)c1 [SW125991] | 161% | 149% | marked improvement in metabolic stability | 3.4 h | show activity in lowering PGE2 | 31.33% | 67.3% | 83.3% | no toxicity | −2.13% | 77.4% | 74.6% |  |  |  |  |  |
| O=C(c1ccc2nc(-c3ccccc3)c(-c3ccccc3)nc2c1)N1CCCCC1 [SW145753] |  |  |  |  |  |  |  |  |  |  |  |  | clear inhibition of 15-PGDH activity | increase luciferase activity | do not in general alter 15-PGDH mRNA levels |  |  |
| COc1ccc(OC)c(N(CC(=O)Nc2ccncc2)S(=O)(=O)c2ccccc2)c1 [SW202938] | 309% | 301% |  |  |  | −47.55% | 217% | 241% |  |  | 155% | 230% |  |  |  | 2.67 µM |  |
| COc1ccc(S(=O)(=O)N(CC(=O)Nc2cccnc2)c2cc(OC)ccc2OC)cc1 [SW202940] | 181% | 183% |  |  |  | 80.46% | 148% | 211% |  | 45.18% | 147% | 181% |  |  |  | ~5 µM | active in inducing 15-PGDH-luciferase reporter activity |
| COc1ccc(OC)c(N(CC(=O)Nc2ccc(C)nc2)S(=O)(=O)c2ccccc2)c1 [SW202988] | 125% | 258% |  |  |  | −16.79% | 40.5% | 125% |  |  | 7.36% | 54.4% |  |  |  | ~10 µM |  |
| COc1ccc(S(=O)(=O)N(CC(=O)Nc2ccncc2)c2cc(OC)ccc2OC)cc1 [SW202989] | 208% | 214% |  |  |  | 69.40% | 159% | 171% |  | 30.59% | 188% | 184% |  |  |  | 0.427 µM |  |
| COc1ccc(OC)c(N(CC(=O)Nc2cncnc2)S(=O)(=O)c2ccccc2)c1 [SW203683] | 104% | -41% |  |  |  | −3.41% | 3.76% | 210% |  |  | 137% | 191% |  |  |  | ~7 µM |  |
| COc1ccc(OC)c(N(CC(=O)Nc2ccnnc2)S(=O)(=O)c2ccccc2)c1 [SW203685] | 122% | -33.2% |  |  |  | 17.84% | 22.3% | 254% |  |  | 100% | 204% |  |  |  | 5 µM |  |
